Measurements published in article PMC8360061, “Search for the Active Ingredients from a 2‐Aminothiazole DMSO Stock Solution with Antimalarial Activity” (Chemmedchem, 2021).
Read-outs that look alike come from different tables or passages of the source.

Assays:
[1] = tested on: Plasmodium falciparum drug-sensitive NF54; test: Antimalarial assay, [3H]hypoxanthine incorporation; format: cell-based; conditions: for IC50: Plasmodium falciparum, read-out: PfNF54 IC50
Method: (§1) Due to the nature of the study, some decomposition samples w ere only tested once and thus, for some formal standard error, […]
For the final purified compounds, replicates were measured and standard deviation was calculated at least from two replicates.
1.2 General Procedure for Antimalarial Assay
Plasmodium falciparum drug-sensitive NF54 (airport strain from The Netherlands, provided by F. Hoffmann-La Roche Ltd) was cultivated in a variation of the medium consisting of RPMI 1640 supplemented with 0.5% ALBUMAX® II, 25 mM Hepes, 25 mM NaHCO3 (pH 7.3), 0.36 mM hypoxanthine, and 100 μg/mL neomycin, as previously described.[4,5] Human erythrocytes served as host cells.
Cultures were maintained in an atmosphere of 3% O2, 4% CO2, and 93% N2 in humidified modular chambers at 37 °C. Compounds were dissolved in MeOH (10 mM), diluted in hypoxanthine-free culture medium and titrated in duplicates over a 64-fold range in 96 well plates. Infected erythrocytes (1.25% final hematocrit and 0.3% final parasitemia) were added into the wells. After 48 h incubation, 0.25 μCi of [3H]hypoxanthine was added per well and plates were incubated for an additional 24 h. Parasites were harvested onto glass-fiber filters and radioactivity was counted using a Betaplate liquid scintillation counter (Wallac, Zurich). Chloroquine […]
The results were recorded and expressed as a percentage of the untreated controls. Fifty percent inhibitory concentrations (IC50) were estimated by linear interpolation.[6] […]

EcIspE = target: T1, EcIspE (Escherichia coli, UniProt P62615); test: EcIspE enzymatic assay (coupled to PK/LDH); format: biochemical
T1 construct: made in house
Source text: (§2) Another approach to address this issue is to perform the IspE assay with one or several orthologues of PfIspE. […] The IspE assay setup was identical for both Pf and EcIspE orthologs except for the target enzyme used. One of the setup requirements was that the enzymatic activity of the auxiliary enzymes PK/LDH exceeded the activity of the target enzyme IspE not less than a factor of ten.[10] We investigated, if the inhibition of the auxiliary enzymes may substantially influence the IC50 values obtained from the coupled IspE assay.
(§3) 1.1 General Procedure for Enzymatic Assay
(§4) The cloning, expression and purification of Plasmodium falciparum[1] and Escherichia coli[2,3] and their subsequent assays followed the previously reported procedures .[1] In some specified cases, the tested compound was dissolved in methanol or acetonitrile for the assay .
as §1
(§5) For the final purified compounds, replicates were measured and standard deviation was calculated at least from two replicates. […]
(§6) 2.) Decomposition Study Procedure
(§7) All reagents and solvents were of commercial quality and used without further purification.
Low resolution mass analytics and purity controls were carried out using an Ultimate 3000-ISQ liquid-chromatography mass spectrometry (LCMS) system (Thermo Fisher […]

A549 = test: Cytotoxicity assay A549; format: cell-based; conditions: Homo sapiens, old sample before becoming aware of the decomposition, read-out: %-inh. A549
Method: as §1, §5
1.3 General Procedure for Cytotoxicity Assay
Cytotoxicity assays based on the human lung adenocarcinoma (A549), human embryonic kidney (Hek293) and human hepatocellular carcinoma (HepG2) cell lines were performed as described previously.[7] […]

PfIspE = PfIspE (Plasmodium falciparum, UniProt Q8I470); test: PfIspE enzymatic assay (coupled to PK/LDH, NADH oxidation at 340 nm); format: biochemical
Method: (§8) Firstly, we performed a temperature‐dependent decomposition study of compound 1 at 10 mM concentration in DMSO at room temperature (RT), +4 °C and −20 °C (SI, Section 2.3). […] Besides visual inspection of the colour changes of the test sample (see Table 2), the decomposition was monitored by HRMS and NMR spectroscopy. […] Furthermore, all three samples were tested for their inhibitory activity against PfIspE after the incubation period. […] In the IspE assay, the activity of the target enzyme is coupled to the oxidation of NADH (which can be followed spectrophotometrically at 340 nm) via a cascade of the auxiliary enzymes pyruvate kinase and lactate dehydrogenase (PK/LDH).[10] […] Three samples of compound 1 were tested in PK/LDH assay (Table 2).
as §2, §3, §4, §1, §5, §6, §7

[2] = target: PK/LDH (pyruvate kinase and lactate dehydrogenase); test: PK/LDH auxiliary enzyme assay; format: biochemical
Method: as §8, §3, §4, §1, §5, §6, §7
Low resolution mass analytics and purity controls were carried out using an Ultimate 3000-ISQ liquid-chromatography mass spectrometry (LCMS) system (Thermo Fisher Scientific, Dreieich, Germany) consisting of a Dionex UltiMate pump, an autosampler, DAD detector and an ESI quadrupole mass spectrometer. NMR spectra were recorded on a Bruker AV 500 or Ascend 700 (1H, 500 MHz or 700 MHz; 13C, 126 MHz or 175 MHz; 19F, 470 MHz) spectrometer. All spectra were measured in DMSO -d6, methanol-d4, acetone-d6 or acetonitrile-d3 to which reported

[3] = 10 mM DMSO stock stored at +4 °C, measured after 3 months
[4] = 10 mM DMSO stock stored at RT, measured after 3 months
[5] = 10 mM DMSO stock stored at −20 °C, measured after 3 months
[6] = analytical sample, DMSO at RT, 0 days of incubation, dissolved in methanol shortly before the assay
[7] = analytical sample, DMSO at RT, 1 day of incubation, dissolved in methanol shortly before the assay
[8] = analytical sample, DMSO at RT, 2 days of incubation, dissolved in methanol shortly before the assay
[9] = analytical sample, DMSO at RT, 3 days of incubation, dissolved in methanol shortly before the assay
[10] = analytical sample, DMSO at RT, 4 days of incubation, dissolved in methanol shortly before the assay
[11] = old decomposed sample, control run at the same time as the temperature study
[12] = 10 mM stock in DMSO at RT, 7 days of incubation
[13] = 10 mM stock in DMSO at RT, 9 days of incubation
[14] = 10 mM stock in DMSO at RT, 12 days of incubation
[15] = 10 mM stock in DMSO at RT, 14 days of incubation
[16] = 10 mM stock in DMSO at RT, 16 days of incubation
[17] = fresh batch, freshly prepared stock solution

T1 sequence (P62615 whole entry): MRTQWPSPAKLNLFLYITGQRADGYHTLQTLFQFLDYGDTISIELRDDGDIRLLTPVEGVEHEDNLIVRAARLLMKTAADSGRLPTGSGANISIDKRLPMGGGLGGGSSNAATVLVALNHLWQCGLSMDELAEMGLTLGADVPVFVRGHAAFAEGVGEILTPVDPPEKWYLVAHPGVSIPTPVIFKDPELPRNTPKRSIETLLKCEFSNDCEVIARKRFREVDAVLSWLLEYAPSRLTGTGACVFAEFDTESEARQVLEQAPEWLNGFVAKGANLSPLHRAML
PfIspE, sequence (Q8I470 entry or part of it): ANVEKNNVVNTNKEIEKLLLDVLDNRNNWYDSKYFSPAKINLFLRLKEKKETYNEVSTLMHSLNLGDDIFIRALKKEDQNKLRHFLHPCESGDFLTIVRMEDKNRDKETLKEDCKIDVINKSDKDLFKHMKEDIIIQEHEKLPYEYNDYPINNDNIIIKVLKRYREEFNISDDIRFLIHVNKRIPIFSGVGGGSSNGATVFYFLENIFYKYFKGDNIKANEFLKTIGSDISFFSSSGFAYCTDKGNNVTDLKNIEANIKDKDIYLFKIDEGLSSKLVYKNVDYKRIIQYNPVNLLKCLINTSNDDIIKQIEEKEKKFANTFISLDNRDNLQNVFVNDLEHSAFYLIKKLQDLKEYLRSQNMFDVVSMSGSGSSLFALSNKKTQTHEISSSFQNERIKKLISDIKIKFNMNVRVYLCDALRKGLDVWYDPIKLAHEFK

CCn1c(C)cc(-c2csc(Nc3ccccc3C(F)(F)F)n2)c1C [Compound 1]
IC50 ([1]; NF54, 48 h, analytical sample, DMSO at RT, 2 days of incubation, dissolved in methanol shortly before the assay): 3.5 ± 0.3 µM | IC50 ([1]; NF54, 96 h, analytical sample, DMSO at RT, 4 days of incubation, dissolved in methanol shortly before the assay): 2.7 ± 0.3 µM | IC50 ([1]; NF54, fresh batch): 7.3 ± 0.8 µM | IC50 ([1]; NF54, old batch (decomposed DMSO stock)): 0.43 ± 0.01 µM | reduction in activity against PfNF54, fresh batch vs old batch ([1]; fresh batch compared with old decomposed batch): 17 fold | IC50 (EcIspE; [3]): 71 ± 10 µM | IC50 (EcIspE; [4]): 101 ± 14 µM | IC50 (EcIspE; [5]): > 500 µM | IC50 (EcIspE; [6]): > 500 µM | IC50 (EcIspE; [7]): > 500 µM | IC50 (EcIspE; [8]): > 500 µM | IC50 (EcIspE; [9]): 397 µM | IC50 (EcIspE; [10]): 75 ± 16 µM | IC50 (EcIspE; fractions of second purification, dissolved in ACN): > 1370 µM | IC50 (EcIspE; fractions of second purification, dissolved in MeOH): > 1370 µM | IC50 (EcIspE; [11]): 32 ± 6 µM | inhibition at 100 µM (A549): -0.3% | IC50 (PfIspE; [3]): 16 ± 7 µM | IC50 (PfIspE; [4]): 12 ± 4 µM | IC50 (PfIspE; [5]): > 500 µM | IC50 (PfIspE; 10 mM stock in ACN at RT, 0 days of incubation): > 500 µM | IC50 (PfIspE; 10 mM stock in ACN at RT, 5 days of incubation): > 500 µM | IC50 (PfIspE; 10 mM stock in ACN at RT, 7 days of incubation): > 500 µM | IC50 (PfIspE; 10 mM stock in ACN at RT, 9 days of incubation): > 500 µM | IC50 (PfIspE; 10 mM stock in ACN at RT, 12 days of incubation): > 500 µM | IC50 (PfIspE; 10 mM stock in ACN at RT, 14 days of incubation): > 500 µM | IC50 (PfIspE; 10 mM stock in ACN at RT, 16 days of incubation): > 500 µM | IC50 (PfIspE; 10 mM stock in DMSO at RT, 0 days of incubation): > 500 µM | IC50 (PfIspE; 10 mM stock in DMSO at RT, 5 days of incubation): 19 ± 7 µM | IC50 (PfIspE; [12]): 24 ± 9 µM | IC50 (PfIspE; [13]): 10 ± 4 µM | IC50 (PfIspE; [14]): 1 ± 1 µM | IC50 (PfIspE; [15]): 10 ± 4 µM | IC50 (PfIspE; [16]): 11 ± 4 µM | IC50 (PfIspE; 10 mM stock in MeOH at RT, 0 days of incubation): > 500 µM | IC50 (PfIspE; 10 mM stock in MeOH at RT, 5 days of incubation): > 500 µM | IC50 (PfIspE; 10 mM stock in MeOH at RT, 7 days of incubation): > 500 µM | IC50 (PfIspE; 10 mM stock in MeOH at RT, 9 days of incubation): > 500 µM | IC50 (PfIspE; 10 mM stock in MeOH at RT, 12 days of incubation): > 500 µM | IC50 (PfIspE; 10 mM stock in MeOH at RT, 14 days of incubation): > 500 µM | IC50 (PfIspE; 10 mM stock in MeOH at RT, 16 days of incubation): > 500 µM | IC50 (PfIspE; [6]): > 500 µM | IC50 (PfIspE; [7]): > 500 µM | IC50 (PfIspE; [8]): > 500 µM | IC50 (PfIspE; [9]): 486 ± 20 µM | IC50 (PfIspE; [10]): 99 ± 23 µM | IC50 (PfIspE; fractions of second purification (DMSO, RT, five days), dissolved in ACN): > 1370 µM | IC50 (PfIspE; fractions of second purification (DMSO, RT, five days), dissolved in MeOH): > 1370 µM | IC50 (PfIspE; [17]): > 500 µM | PfIspE IC50 (PfIspE; [17]): no activity | IC50 (PfIspE; freshly dissolved compound, in methanol shortly before the assay (Table 4 footnote b)): > 500 µM | IC50 (PfIspE; old batch (decomposed DMSO stock)): 8 ± 2.8 µM | IC50 (PfIspE; [11]): 10 ± 3 µM | IC50 [2, 3]: 45 ± 6 µM | IC50 [2, 4]: 34 ± 4 µM | IC50 [2, 12]: 48 ± 16 µM | IC50 [2, 13]: 57 ± 22 µM | IC50 [2, 14]: 2 ± 1 µM | IC50 [2, 15]: 50 ± 11 µM | IC50 [2, 16]: 86 ± 17 µM | IC50 [2, 10]: 95 ± 21 µM | IC50 [2, 11]: 40 ± 4 µM
